From patent publication US9328158B2, “H. pylori lipopolysaccharide outer core epitope” (National Research Council of Canada, priority 2009, dated 2016)
Converted amounts (≈) assume the structure as drawn.

Biological target: 1C4F9 mAb
Assay: Inhibition ELISA of 1C4F9 mAb binding to adsorbed LPS
Parameters: species or system mouse
Details: Concentration of the oligosaccharide or LPS required for 50% inhibition; purified 1C4F9
Protocol: Studies of the specificity of the glucan-specific antibody were carried out using a series of linear oligosaccharides consisting of consecutive α1,6-linked glucose residues Glc→[α(1→6)Glc]n=1-6 and selective purified H. pylori LPS. For inhibition ELISA, serial dilutions of linear α1,6-linked glucose-containing oligosaccharides from isomalto-series [Glcα1→(6Glcα1→)n=1-6] (USBIOLOGICALS™, Swampscott, […].) or H. pylori 26695, O:3 and PJ2 LPS inhibitors were prepared and mixed with previously prepared dilutions of purified 1 C4F9 that gave an OD450=1. […] After this step, the indirect ELISA procedure was followed as described in Example 6.

Row | Structure (SMILES) | IC50
1 | OCC1OC(OCC2OC(OCC3OC(O)C(O)C(O)C3O)C(O)C(O)C2O)C(O)C(O)C1O (centres unmarked) [Isomaltotriose] | 10,000 μg/mL
2 | OCC1OC(OCC2OC(OCC3OC(OCC4OC(O)C(O)C(O)C4O)C(O)C(O)C3O)C(O)C(O)C2O)C(O)C(O)C1O (centres unmarked) [Isomaltotetraose] | 1,600 μg/mL
3 | OCC1OC(OCC2OC(OCC3OC(OCC4OC(OCC5OC(O)C(O)C(O)C5O)C(O)C(O)C4O)C(O)C(O)C3O)C(O)C(O)C2O)C(O)C(O)C1O (centres unmarked) [Isomaltopentaose] | 460 µg/mL (≈ 555 µM)
4 | OCC1OC(OCC2OC(OCC3OC(OCC4OC(OCC5OC(OCC6OC(OCC7OC(O)C(O)C(O)C7O)C(O)C(O)C6O)C(O)C(O)C5O)C(O)C(O)C4O)C(O)C(O)C3O)C(O)C(O)C2O)C(O)C(O)C1O (centres unmarked) [Isomaltoheptaose] | 210 µg/mL (≈ 182 µM)
5 | OCC1OC(OCC2OC(OCC3OC(OCC4OC(OCC5OC(OCC6OC(O)C(O)C(O)C6O)C(O)C(O)C5O)C(O)C(O)C4O)C(O)C(O)C3O)C(O)C(O)C2O)C(O)C(O)C1O (centres unmarked) [Isomaltohexaose] | 290 µg/mL (≈ 293 µM)
